Measurements: ChEMBL document CHEMBL1152120, “RP 73163: A bioavailable alkylsulphinyl-diphenylimidazole ACAT inhibitor” (Bioorg Med Chem Lett, 1996)

Columns and labels:
[1] = target: T1, Acyl-CoA:cholesterol acyltransferase (Oryctolagus cuniculus, UniProt Q95214); assay: Compound was evaluated for inhibitory activity against Acyl coenzyme A:cholesterol acyltransferase in microsomes from rabbit intestine.
T1 sequence (Q95214 whole entry): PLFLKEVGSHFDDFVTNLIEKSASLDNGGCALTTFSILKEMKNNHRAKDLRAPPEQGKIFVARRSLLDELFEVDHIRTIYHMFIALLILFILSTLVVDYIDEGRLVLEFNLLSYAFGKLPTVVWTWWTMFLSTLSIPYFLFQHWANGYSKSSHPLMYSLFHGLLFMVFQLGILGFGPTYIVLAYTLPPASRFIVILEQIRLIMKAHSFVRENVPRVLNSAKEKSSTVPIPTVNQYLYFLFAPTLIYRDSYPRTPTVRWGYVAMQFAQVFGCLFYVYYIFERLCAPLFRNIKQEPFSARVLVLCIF

[2] = target: T1, Acyl-CoA:cholesterol acyltransferase; assay: Compound was evaluated for inhibitory activity against Acyl coenzyme A:cholesterol acyltransferase in microsomes from rabbit liver.
[3] = target: T1, Acyl-CoA:cholesterol acyltransferase; assay: Compound was evaluated for inhibitory activity against Acyl coenzyme A:cholesterol acyltransferase in microsomes from rabbit adrenal.
[4] = target: T1, Acyl-CoA:cholesterol acyltransferase; assay: Compound was evaluated for inhibitory activity against Acyl coenzyme A:cholesterol acyltransferase in microsomes from rabbit artery.

IC50 [1]: 0.37 µM
IC50 [2]: 0.122 µM
IC50 [3]: 0.208 µM
IC50 [4]: 0.245 µM
Compound: Cc1cc(C)n(CCCCC[S+]([O-])c2nc(-c3ccccc3)c(-c3ccccc3)[nH]2)n1 (centres undefined)
